Data as given in patent US8609719B2, “Propargylated aminoindans, processes for preparation, and uses thereof” (priority 2006, dated 2013).

Assays:
MAO-A = target: T1, MAO-A (Homo sapiens, UniProt P21397); assay: Decrease of plasma DHPG in patients (HPLC analysis of MAO-A inhibition); type: in vivo
T1 construct: from tissue; host or cells: patients in vivo; DHPG measured in plasma
T1 sequence (P21397 1-527): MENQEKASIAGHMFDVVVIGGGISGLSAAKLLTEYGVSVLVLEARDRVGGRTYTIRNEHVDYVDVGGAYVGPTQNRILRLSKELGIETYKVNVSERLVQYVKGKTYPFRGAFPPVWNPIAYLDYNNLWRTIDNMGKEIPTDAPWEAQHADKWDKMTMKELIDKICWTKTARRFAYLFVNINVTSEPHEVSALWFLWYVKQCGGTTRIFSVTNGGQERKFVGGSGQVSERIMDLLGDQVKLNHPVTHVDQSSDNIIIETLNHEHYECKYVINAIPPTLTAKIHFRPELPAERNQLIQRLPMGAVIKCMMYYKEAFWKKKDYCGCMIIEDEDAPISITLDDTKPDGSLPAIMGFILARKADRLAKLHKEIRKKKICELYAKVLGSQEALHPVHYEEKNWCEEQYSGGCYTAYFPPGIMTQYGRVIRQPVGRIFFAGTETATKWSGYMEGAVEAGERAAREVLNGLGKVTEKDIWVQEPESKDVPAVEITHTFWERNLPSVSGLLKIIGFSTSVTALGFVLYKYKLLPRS
Protocol: 8 patients, 7 female and 1 male, ages 62-81 with a median age of 68 and above with diagnosis of probable Alzheimer's disease according to DSM-IV (290.00 or 290.10) and NINCDS-ADRDA criteria were administered ladostigil tartrate according to the following schedule:
Decrease of 3,4-dihydroxyphenylglycol (“DHPG”) in plasma is indicative of monoamine oxidase inhibition, especially in the brain. DHPG plasma concentrations were measured in 6 of the aforementioned patients at baseline and at termination analysis, using HPLC equipped with an electrochemical detector.
The decrease in DHPG concentration in the six patients was determined. The average decrease in DHPG concentration was determined to be 57% with a standard deviation of 29.

Cholinesterase = Cholinesterase inhibition in patients at pre-dose; type: in vivo, human; settings: at maintenance and at termination analyses
Protocol: 8 patients, 7 female and 1 male, ages 62-81 with a median age of 68 and above with diagnosis of probable Alzheimer's disease according to DSM-IV (290.00 or 290.10) and NINCDS-ADRDA criteria were administered ladostigil tartrate according to the following schedule: […]

clinical = settings: human, in vivo; for Cmax / AUC / AUC(0-t): 100 mg, after ladostigil tartrate 100 mg twice daily; for AUC: AUC (M)

## C#CCN[C@@H]1CCc2ccc(OC(=O)N(C)CC)cc21 [ladostigil, R(+)-6-(N-methyl, N-ethyl-carbamoyloxy)-N′-propargyl-1-aminoindan]
MAO-A; Patient 1, termination analysis Week 9 vs baseline
  DHPG (T): −63%
MAO-A; Patient 2, termination analysis Week 9 vs baseline
  DHPG (T): −86%
MAO-A; Patient 5, termination analysis Week 9 vs baseline
  DHPG (T): >−79%
MAO-A; Patient 6, termination analysis Week 9 vs baseline
  DHPG (T): −73%
MAO-A; Patient 7, termination analysis Week 9 vs baseline
  DHPG (T): −30%
MAO-A; Patient 8, termination analysis Week 9 vs baseline
  DHPG (T): −13%
Cholinesterase
  Cholinesterase inhibition at pre-dose, in words: evident
clinical; both
  half-life: 1.08 h
clinical; both, Cmax (M), mean, mean of patients, maintenance analysis Week 4
  Cmax: 2.02e-06 M
clinical; both, Cmax (T), mean, mean of patients, termination analysis Week 9
  Cmax: 1.88e-06 M
clinical; Patient 1, maintenance analysis Week 4
  AUC: 314 ng·h/mL
clinical; Patient 2, maintenance analysis Week 4
  AUC: 589 ng·h/mL
clinical; Patient 3, maintenance analysis Week 4
  AUC: 1000 ng·h/mL
clinical; Patient 4, maintenance analysis Week 4
  AUC: 927 ng·h/mL
clinical; Patient 5, maintenance analysis Week 4
  AUC: 436 ng·h/mL
clinical; Patient 6, maintenance analysis Week 4
  AUC: 551 ng·h/mL
clinical; Patient 7, maintenance analysis Week 4
  AUC: 52 ng·h/mL
clinical; Patient 8, maintenance analysis Week 4
  AUC: 500 ng·h/mL
clinical; Patient 1, termination analysis Week 9
  AUC(0-t): 246 ng·h/mL
clinical; Patient 2, termination analysis Week 9
  AUC(0-t): 2300 ng·h/mL
clinical; Patient 3, termination analysis Week 9
  AUC(0-t): 1450 ng·h/mL
clinical; Patient 4, termination analysis Week 9
  AUC(0-t): 482 ng·h/mL
clinical; Patient 5, termination analysis Week 9
  AUC(0-t): 398 ng·h/mL
clinical; Patient 6, termination analysis Week 9
  AUC(0-t): 901 ng·h/mL
clinical; Patient 7, termination analysis Week 9
  AUC(0-t): 118 ng·h/mL
clinical; Patient 8, termination analysis Week 9
  AUC(0-t): 350 ng·h/mL
clinical; Cmax (M), Patient 1, maintenance analysis Week 4
  Cmax: 1.1e-06 M
clinical; Cmax (M), Patient 2, maintenance analysis Week 4
  Cmax: 1.2e-06 M
clinical; Cmax (M), Patient 3, maintenance analysis Week 4
  Cmax: 3.5e-06 M
clinical; Cmax (M), Patient 4, maintenance analysis Week 4
  Cmax: 3.9e-06 M
clinical; Cmax (M), Patient 5, maintenance analysis Week 4
  Cmax: 1.4e-06 M
clinical; Cmax (M), Patient 6, maintenance analysis Week 4
  Cmax: 1.5e-06 M
clinical; Cmax (M), Patient 7, maintenance analysis Week 4
  Cmax: 2e-07 M
clinical; Cmax (M), Patient 8, maintenance analysis Week 4
  Cmax: 1.7e-06 M
clinical; Cmax (T), Patient 1, termination analysis Week 9
  Cmax: 7e-07 M
clinical; Cmax (T), Patient 2, termination analysis Week 9
  Cmax: 3.8e-06 M
clinical; Cmax (T), Patient 3, termination analysis Week 9
  Cmax: 3.9e-06 M
clinical; Cmax (T), Patient 4, termination analysis Week 9
  Cmax: 1.6e-06 M
clinical; Cmax (T), Patient 5, termination analysis Week 9
  Cmax: 1e-06 M
clinical; Cmax (T), Patient 6, termination analysis Week 9
  Cmax: 2.5e-06 M
clinical; Cmax (T), Patient 7, termination analysis Week 9
  Cmax: 4e-07 M
clinical; Cmax (T), Patient 8, termination analysis Week 9
  Cmax: 1.3e-06 M
